Tests used:
[1] = target: T1, human 5HT1Dβ receptor (Homo sapiens, UniProt P28222); assay: Binding to human 5HT1Dβ receptor ([3H]serotonin); conditions: cloned human receptor
T1 construct: expressed in transfected cells
Procedure: 5HT1Dα, 5HT1Dβ, 5HT1E, 5HT1F Receptors: LM(tk−) clonal cell lines stably transfected with the genes encoding each of these 5HT receptor subtypes were prepared as described above. […] Membrane preparations comprising these receptors were prepared as described below, and suspended in 50 mM Tris-HCl buffer (pH 7.4 at 37° C.) containing 10 mM MgCl2, 0.2 mM EDTA, 10 μM pargyline, and 0.1% ascorbate. The binding of compounds was determined in competition binding assays by incubation for 30 minutes at 37° C. in the presence of 5 nM [^3H) serotonin. Nonspecific binding was determined in the presence of 10 μM serotonin.

[2] = target: T2, human 5HT2 receptor (Homo sapiens, UniProt P28223); assay: Binding to human 5HT2 receptor ([3H]ketanserin); conditions: cloned human receptor
T2 construct: expressed in transfected cells; host or cells: COS-7 cells (DEAE-dextran); the same paragraph also names the deposited line L-NGC-5HT2 (ATCC CRL 10287)
Procedure: Human 5HT2 Receptor: The coding sequence of the human 5HT2 receptor was obtained from a human brain cortex cDNA library, and cloned into the cloning site of pCEXV-3 eukaryotic expression vector. […] The pellet was suspended in 50 mM Tris-HCl buffer (pH 7.7 at room temperature) containing 10 mM MgSO4, 0.5mM EDTA, and 0.1% ascorbate. […] Nonspecific binding was defined by the addition of 10 μM mianserin.

[3] = target: T3, human Y4 receptor (Homo sapiens, UniProt P50391); assay: Radioligand binding to cloned human Y4 receptor (125I-PYY); conditions: cloned human Y4, stably transfected cells, read-out: Binding Affinity (K1 (nM) vs. 125I-PYY) Human Receptor Y4
T3 construct: expressed in transfected cells
Procedure: Human Y1, human Y2, and rat Y5 receptors were co-transfected with a G-418 resistant gene into the human embryonic kidney 293 cell line by a calcium phosphate transfection method (Cullen, 1987). Stably transfected cells were selected with G-418. Human Y4 and human Y5 receptors were similarly transfected into mouse fibroblast LM(tk−) cells and NIH-3T3 cells.
Binding of the compounds of the present invention to the human Y1, Y2, Y4 and Y5 receptors was evaluated using stably transfected 293 or LM(tk−) cells as described above. Stably transfected cell lines which may be used for binding assays include, for example, for the human Y1 receptor, 293-hY1-5 (deposited Jun. 4, 1996, under ATCC Accession No. CRL-12121), for the human Y2 receptor, 293-hY2-10 (deposited Jan. 27, 1994, under ATCC Accession No. CRL-11537), for the human Y4 receptor, L-hY4-3 (deposited Jan. 11, 1995, under ATCC Accession No. CRL-11779), and for the human Y5 receptor, L-hY5-7 (deposited Nov. 15, 1995, under ATCC Accession No. CRL-11995).
Membranes were harvested from COS-7 cells 48 hours after transient transfection. Adherent cells were washed twice in ice-cold phosphate buffered saline (138 mM NaCl, 8.1 mM Na2HPO4, 2.5 mM KCl, […], 0.9 mM CaCl2, 0.5 mM MgCl2, pH 7.4) and lysed by sonication in ice-cold sonication buffer (20 mM Tris-HCl, 5 mM EDTA, pH 7.7). Large particles and debris were cleared by low speed centrifugation (200 x g, 5 min, 4° C.). Membranes were collected from the supernatant fraction by centrifugation (32,000 x g, 18 min, […] ), washed with ice-cold hypotonic buffer, and collected again by centrifugation (32,000 x g, 18 min, 4° C.). […] Protein concentration was measured by the Bradford method (Bradford, 1976) using Bio-Rad Reagent, with bovine serum albumin as a standard. Membranes were held on ice for up to one hour and used fresh, or flash-frozen and stored in liquid nitrogen.
Membranes were prepared similarly from 293, LM(tk−), and NIH-3T3 cells. To prepare membranes from baculovirus infected cells, 2×10^7 Sf21 cells were grown in 150 mm tissue culture dishes and infected with a high-titer stock of hY5BB3. Cells were incubated for 2-4 days at 27° C., no CO2 be fore harvesting and membrane preparation as described above.

[4] = target: T4, human dopamine D3 receptor (Homo sapiens, UniProt P35462); assay: Binding to human dopamine D3 receptor ([3H]spiperone); conditions: cloned human receptor
T4 construct: expressed in transfected cells; host or cells: COS-7 cells, transient

[5] = target: T5, human α1a receptor (Homo sapiens, UniProt P35348); assay: Binding to cloned human α1a adrenergic receptor
T5 construct: expressed in transfected cells
Description: α1 Human Adrenergic Receptors: To determine the binding of compounds to human α1 receptors, LM(tk−) cell lines stably transfected with the genes encoding the α1a, α1b, and α1d receptors were used. The nomenclature describing the α1 receptors was changed recently, such that the receptor formerly designated α1a is now designated α1d, and the receptor formerly designated α1c is now designated α1a (ref).

[6] = target: T6, cloned human Y5 receptor (Homo sapiens, UniProt Q15761); assay: Functional assay: block of NPY-induced inhibition of cAMP accumulation in forskolin-stimulated LM(tk-) cells (radioimmunoassay of cAMP); type: cell-based; conditions: antagonism of NPY-induced inhibition of cAMP accumulation, forskolin-stimulated LM(tk-) cells with human Y5; at least three experiments
T6 construct: expressed in transfected cells
T6 sequence (Q15761 1-445): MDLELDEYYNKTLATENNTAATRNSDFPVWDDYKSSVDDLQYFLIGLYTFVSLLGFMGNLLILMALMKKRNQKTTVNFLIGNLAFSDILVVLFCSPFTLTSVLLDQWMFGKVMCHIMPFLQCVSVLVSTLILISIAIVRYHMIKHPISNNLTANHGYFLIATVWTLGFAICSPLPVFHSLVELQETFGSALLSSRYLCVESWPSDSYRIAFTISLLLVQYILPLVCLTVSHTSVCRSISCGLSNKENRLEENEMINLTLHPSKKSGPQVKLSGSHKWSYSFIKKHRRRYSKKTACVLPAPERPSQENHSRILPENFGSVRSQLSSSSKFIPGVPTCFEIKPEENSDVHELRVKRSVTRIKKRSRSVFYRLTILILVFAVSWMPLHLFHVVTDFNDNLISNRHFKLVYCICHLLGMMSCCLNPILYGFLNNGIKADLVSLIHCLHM
Procedure: LM(tk−) cells stably transfected with the human Y5 receptor were routinely converted from an adherent monolayer to a viable suspension. […] The cell suspension was maintained in a shaking incubator at 37° C., 5% CO2 for 24 hours.
Stably transfected cells were seeded into 96-well microtiter plates and cultured until confluent.
The ability of the compounds to antagonize the Y-type receptors is reported as the Kb. […] Results shown are representative of at least three indepenent experiments.

[7] = target: T7, human Y1 receptor (Homo sapiens, UniProt P25929); assay: Radioligand binding to cloned human Y1 receptor (125I-PYY); conditions: cloned human Y1, stably transfected cells, read-out: Binding Affinity (K1 (nM) vs. 125I-PYY) Human Receptor Y1
T7 construct: expressed in transfected cells
T7 sequence (P25929 1-384): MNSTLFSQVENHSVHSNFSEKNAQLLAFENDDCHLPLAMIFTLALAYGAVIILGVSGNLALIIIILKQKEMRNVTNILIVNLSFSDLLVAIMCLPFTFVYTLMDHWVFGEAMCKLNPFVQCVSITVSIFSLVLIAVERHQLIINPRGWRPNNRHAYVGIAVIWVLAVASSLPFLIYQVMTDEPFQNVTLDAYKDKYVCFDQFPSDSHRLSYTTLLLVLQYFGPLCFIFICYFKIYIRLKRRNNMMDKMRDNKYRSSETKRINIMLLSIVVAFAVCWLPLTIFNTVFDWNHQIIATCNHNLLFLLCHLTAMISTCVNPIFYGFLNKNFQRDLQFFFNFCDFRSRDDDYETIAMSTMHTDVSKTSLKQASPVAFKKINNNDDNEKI
Procedure: Membranes were harvested from COS-7 cells 48 hours after transient transfection. […] Large particles and debris were cleared by low speed centrifugation (200 x g, 5 min, 4° C.). […] Membranes were held on ice for up to one hour and used fresh, or flash-frozen and stored in liquid nitrogen.
Incubations were terminated by filtration over Whatman GF/C filters (pre-coated with 1% polyethyleneimine and air-dried before use), followed by washing with 5 mL of ice-cold binding buffer.

[8] = tested on: food intake in food-deprived rats; assay: Food intake in food-deprived rats (24 h food deprivation); type: in vivo, rat; set-up: concentration or dose not given beside the values; conditions: rats after 24 h food deprivation; two hours after administration of test compound

T3 sequence (P50391 whole entry): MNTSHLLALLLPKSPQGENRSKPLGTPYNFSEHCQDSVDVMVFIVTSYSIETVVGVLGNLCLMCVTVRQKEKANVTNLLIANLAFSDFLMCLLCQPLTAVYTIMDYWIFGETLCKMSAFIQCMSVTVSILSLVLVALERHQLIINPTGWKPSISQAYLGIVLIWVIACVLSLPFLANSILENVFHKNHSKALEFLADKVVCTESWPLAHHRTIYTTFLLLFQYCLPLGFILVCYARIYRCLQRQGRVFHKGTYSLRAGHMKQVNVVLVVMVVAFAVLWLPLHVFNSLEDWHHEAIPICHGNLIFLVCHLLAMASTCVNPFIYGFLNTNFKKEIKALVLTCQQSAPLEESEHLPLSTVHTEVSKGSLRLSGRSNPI
T2 sequence (P28223 whole entry): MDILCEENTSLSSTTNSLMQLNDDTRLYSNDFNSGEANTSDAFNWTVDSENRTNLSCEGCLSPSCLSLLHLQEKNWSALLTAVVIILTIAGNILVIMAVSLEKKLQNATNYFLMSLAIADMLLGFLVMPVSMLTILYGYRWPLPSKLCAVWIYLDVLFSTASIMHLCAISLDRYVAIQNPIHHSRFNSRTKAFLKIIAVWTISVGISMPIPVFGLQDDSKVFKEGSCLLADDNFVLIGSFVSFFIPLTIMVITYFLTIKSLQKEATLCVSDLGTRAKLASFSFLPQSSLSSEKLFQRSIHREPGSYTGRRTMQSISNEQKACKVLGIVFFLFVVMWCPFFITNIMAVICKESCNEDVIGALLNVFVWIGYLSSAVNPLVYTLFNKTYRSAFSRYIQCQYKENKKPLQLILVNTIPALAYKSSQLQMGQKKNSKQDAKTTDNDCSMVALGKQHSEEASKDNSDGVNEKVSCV
T5 sequence (P35348 whole entry): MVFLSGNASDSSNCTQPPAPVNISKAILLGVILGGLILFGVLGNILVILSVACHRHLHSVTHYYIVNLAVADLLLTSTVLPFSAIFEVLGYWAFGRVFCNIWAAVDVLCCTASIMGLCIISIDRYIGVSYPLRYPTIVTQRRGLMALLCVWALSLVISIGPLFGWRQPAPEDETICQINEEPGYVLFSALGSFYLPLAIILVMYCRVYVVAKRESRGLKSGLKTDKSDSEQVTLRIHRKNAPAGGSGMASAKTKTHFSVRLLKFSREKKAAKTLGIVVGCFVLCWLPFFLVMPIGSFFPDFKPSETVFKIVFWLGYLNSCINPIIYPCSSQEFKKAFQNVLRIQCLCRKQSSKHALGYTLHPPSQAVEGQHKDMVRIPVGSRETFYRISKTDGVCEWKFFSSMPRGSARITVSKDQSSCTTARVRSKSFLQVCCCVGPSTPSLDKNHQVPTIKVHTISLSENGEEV
T1 sequence (P28222 whole entry): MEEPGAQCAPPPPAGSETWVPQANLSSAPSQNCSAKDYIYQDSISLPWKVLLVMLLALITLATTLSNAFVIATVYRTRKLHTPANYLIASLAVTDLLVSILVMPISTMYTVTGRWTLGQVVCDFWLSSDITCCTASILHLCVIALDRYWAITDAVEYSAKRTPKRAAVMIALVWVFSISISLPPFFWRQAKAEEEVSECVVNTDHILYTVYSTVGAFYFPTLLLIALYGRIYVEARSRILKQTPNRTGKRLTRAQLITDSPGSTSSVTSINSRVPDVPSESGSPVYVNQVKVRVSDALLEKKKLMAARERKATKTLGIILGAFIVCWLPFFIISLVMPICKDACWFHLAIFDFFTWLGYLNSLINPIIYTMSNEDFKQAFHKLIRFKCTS
T4 sequence (P35462 whole entry): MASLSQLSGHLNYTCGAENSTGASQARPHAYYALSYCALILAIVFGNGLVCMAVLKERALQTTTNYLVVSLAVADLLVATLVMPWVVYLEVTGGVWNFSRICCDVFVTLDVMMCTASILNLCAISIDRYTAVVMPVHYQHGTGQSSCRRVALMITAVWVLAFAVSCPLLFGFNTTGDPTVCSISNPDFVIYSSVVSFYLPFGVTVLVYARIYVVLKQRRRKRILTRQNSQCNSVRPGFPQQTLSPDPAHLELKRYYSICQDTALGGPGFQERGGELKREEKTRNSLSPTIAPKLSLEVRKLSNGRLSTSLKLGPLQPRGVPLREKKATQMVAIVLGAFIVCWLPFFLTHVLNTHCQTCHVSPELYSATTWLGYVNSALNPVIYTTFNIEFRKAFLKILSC

SMILES	Receptor (pKi) 5HT1Dβ [1]	Receptor (pKi) 5HT2 [2]	Ki [3] [nM]	Receptor (pKi) D3 [4]	Receptor (pKi) α1a [5]	Kb [6] [µM]	Ki [7] [nM]	Two-hour food intake, percentage of intake compared to control rats, Mean (%) [8] [%]
Cl.O=S(=O)(NCC1CCC(CNCC2CCc3ccccc3C2)CC1)c1cccc2ccccc12 (stereo not shown) [Example 32]	≤ 5.30	6.55	11700	6.69	7.47	0.023	3550	36
Cl.O=[N+]([O-])c1ccccc1S(=O)(=O)NCC1CCC(CNCC2CCc3ccccc3C2)CC1 (stereo not shown) [Example 36]	5.37	5.93	20400	6.35	7.72	0.026	16000	35

— patent US6734182B2, “Aryl sulfonamides and sulfamide derivatives and uses thereof” (Synaptic Pharmaceutical Corporation, priority 1995, dated 2004)
